Test results taken from US5164390A, “6-substituted purinyl piperazine derivatives” (Ortho Pharmaceutical Corporation, priority 1991, dated 1992).
Like-named read-outs stand apart in the source and are kept apart here.

Tested on: Adult mongrel dogs
Test: Cardiotonic activity: hemodynamic and inotropic responses (MAP, HR, dP/dt, contractile force) in anesthetized dogs, iv infusion
Assay type: in vivo, mongrel dog
Conditions: Canis lupus familiaris, Table 2, 1.875 mpk iv
Method: Adult mongrel dogs were anesthetized with sodium pentobarbital (45 mg/kg, i.p.) and artificially respired. Mean arterial pressure (MAP) was recorded from a cannulated femoral artery and drugs were infused into a cannulated femoral vein. The arterial pressure pulse was used to trigger a cardiotachometer for determination of heart rate (HR). Left ventricular pressure was measured with a Millar catheter and dP/dtmax was derived. A right thoracotomy was performed and myocardial contractile force (CF) was measured with a Walton Brodie strain gauge sutured to the right ventricle. The ventricular muscle was stretched to produce a baseline tension of 100 g. A standard dose of dopamine (10-15 ug/kg/min for 3 min) was administered to determine myocardial responsiveness to inotropic stimulation.
Test compounds were solubilized in a small volume of DMF diluted to a final concentration of 10% in physiological saline. Alternatively, where possible, a soluble hydrochloride salt was prepared by addition of 0.1N HCl diluted in physiological saline. Vehicles were tested in appropriate volumes and found to exert less than a 5% effect on contractile force. For iv studies, compounds were administered by infusion pump (one drug per animal) at rates of 0.58-2.2 mL/min in three to four stepwise increasing doses. Each dose was infused over 5 min immediately after the effect of the previous dose peaked. MAP, HR, dP/dtmax and CF responses were continuously monitored on a Beckman or Gould recorder and expressed as a percent change from pre-drug control values vs. the cumulative dose of drug administered. For these studies, n represents the number of test animals used.
Quantitation of the inotropic potency was obtained by calculation of the contractile force (CF) ED50. This was defined as the dose of compound that produced a 50% increase above baseline in myocardial contractile force. The value was obtained from three to four point dose-response curves using either graphical estimation (n<3) or linear regression analysis (n≥3). Numbers in parentheses are number of animals screened.

[1] = read-out: CF (myocardial contractile force), percent change from pre-drug control
[2] = read-out: HR (heart rate), percent change from pre-drug control
[3] = read-out: MAP (mean arterial pressure), percent change from pre-drug control
[4] = read-out: dP/dt (left ventricular dP/dtmax), percent change from pre-drug control

Structure (SMILES) | change in vivo at 1.875 mg/kg [1] | change in vivo at 1.875 mg/kg [2] | change in vivo at 1.875 mg/kg [3] | change in vivo at 1.875 mg/kg [4]
CN(CC(O)CN1CCN(C(c2ccc(F)cc2)c2ccc(F)cc2)CC1)c1ncnc2[nH]cnc12 (stereo not drawn) [Example 28, 6-[3-[4-[Bis(4-fluorophenyl)methyl]piperazin-1-yl]-2-hydroxypropyl-N-methylamino]purine Hemihydrate] | 95% | 16% | 9% | 82%
Cn1cnc2c(SCC(O)CN3CCN(C(c4ccc(F)cc4)c4ccc(F)cc4)CC3)ncnc21 (stereo not drawn) [Example 29, 9-Methyl-6-[1-[1-[bis(4-fluorophenyl)methyl]piperazin-4-yl]-2-hydroxy-3-propanylthio]purine Hemihydrate] | 50% | -2% | -6% | 11%
Cc1nc(SCC(O)CN2CCN(C(c3ccc(F)cc3)c3ccc(F)cc3)CC2)c2nc[nH]c2n1 (stereo not drawn) [Example 30, 2-Methyl-6-[1-[1-[bis(4-fluorophenyl)methyl]piperazin-4-yl]-2-hydroxy-3-propanylthio]purine 3/4Hydrate] | 23% | 1% | 1% | 17%
